Assay results published in patent US20070142317A1, “Topical composition for treatment of skin disorders” (QLT USA, Inc., priority 2003, published 2007).
“And” between values parts separate entries of the source, which are not always exact repeats. Equal entries are not always repeated. Where two headings read alike, the source gives them in different places. One block for each molecule: values may come before it.

Assays:
[1] = for times safer than the oncology dose: 40 grams each day, 7% penetration
Description: (§1) Systemic absorption is a concern, because of the potential for serious adverse events, such as lymphopenia and renal toxicity. At oncology doses, these adverse reactions are usually minimized, but the therapeutic index is narrow. Another factor that plays a role in the safety of the formulation is the amount of product administered each day. Approximately 4 grams, 12 grams, and 40 grams of a topical formulation are estimated to cover 10%, 30%, and 100% of the body surface area.
as §1
as §1, with “Calculations of safety margins have been performed, based upon this assumption and the known toxicity profile of F-Ara-A when administered IV for oncology indications. Systemic” for “Systemic”
as §1

[2] = system: Jurkat cells; assay: Cytokine secretion by ELISA (Example 31); format: cell-based; settings: drug 1 μM; for Cytokine Secretion IL-2 pg/ml Mean of 3 Replicates: PHA-activated cells
Experimental: In a search for a topical agent that can locally deplete levels of T-cells in the skin, apoptotic compounds were evaluated for their mechanisms of action. The ability that […] induce apoptosis by the same mechanisms was examined by cytokine secretion. […] At the end of the treatment period, the cells were harvested and Caspase-3 induction was determined using a flow-cytometry-based method to quantify the percentage of cells that induced Caspase-3. The level of apoptosis is expressed as “% FITC shift”. Cytokine secretion (IL-2, IL-6, TNF, and IFN-γ) was measured at the same time by ELISA and is expressed in pg/mL.

[3] = system: U-937 cells; settings: Niiitsu et al 2000; cited from earlier work
[4] = system: hairy cell leukemia (HCL); settings: cited from earlier work
[5] = system: U-937 cells; assay: Cytokine secretion by ELISA (Example 31); format: cell-based; settings: drug 1 μM; for Cytokine Secretion IL-6 pg/ml Mean of 3 Replicates: LPS-activated cells
Experimental: In a search for a topical agent that can locally deplete levels of T-cells in the skin, apoptotic compounds were evaluated for their mechanisms of action. The ability that […] induce apoptosis by the same mechanisms was examined by cytokine secretion. […] Caspase-3 and cytokine (IL-2, IL-6, TNF, and IFN-γ) levels were determined and compared to controls at 23 and 46 hours. FdA was incorporated to evaluate the effect of the halogen group and Ara-C for its overlapping mechanisms of action. […] At the end of the treatment period, the cells were harvested and Caspase-3 induction was determined using a flow-cytometry-based method to quantify the percentage of cells that induced Caspase-3. The level of apoptosis is expressed as “% FITC shift”. Cytokine secretion (IL-2, IL-6, TNF, and IFN-γ) was measured at the same time by ELISA and is expressed in pg/mL. […]

[6] = molecular target: dGK (Homo sapiens, UniProt Q16854); settings: read-out: Km for dGK; cited from earlier work
[7] = Calculated concentration in the skin assuming 7% penetration
[8] = system: chronic lymphocytic leukemia (CLL); settings: 25 mg/m^2 every day for 5 days; cited from earlier work
[9] = system: monocytes; settings: read-out: concentration that causes 50% inhibition of monocytes; cited from earlier work
[10] = intravenous; cited from earlier work
[11] = system: lymphocytes; settings: same concentration of dCF, absence of dAdo, after 4 days of exposure; cited from earlier work
[12] = aqueous solution, cited from earlier work

Chain of dGK (Q16854 40-277, species assumed): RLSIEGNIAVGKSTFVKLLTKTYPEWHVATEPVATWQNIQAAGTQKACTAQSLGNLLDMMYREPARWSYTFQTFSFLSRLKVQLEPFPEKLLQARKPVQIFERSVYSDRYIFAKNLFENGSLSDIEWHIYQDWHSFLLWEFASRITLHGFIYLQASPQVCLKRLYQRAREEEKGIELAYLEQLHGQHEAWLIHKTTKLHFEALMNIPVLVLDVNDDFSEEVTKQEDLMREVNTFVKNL

times safer than the oncology dose ([1]; topical 0.00001%): 23000
systemic exposure per day ([1]; topical 0.1% (1.0 mg/g), 10% BSA (4 grams), 7% systemic absorption): 0.28 mg
systemic exposure per day ([1]; topical 0.1% (1.0 mg/g), 30% BSA (12 grams), 7% systemic absorption): 0.84 mg
systemic exposure per day ([1]; topical 0.1% (1.0 mg/g), 100% BSA (40 grams), 7% systemic absorption): 2.8 mg
concentration achieved in the skin assuming 7% penetration ([7]; topical 0.00001% (0.0001 mg/g)): approximately 25 nM
Concentration in the skin assuming 7% penetration ([7]; topical concentration 0.00001%): 20 nM
Concentration in the skin assuming 7% penetration ([7]; topical concentration 0.00005%): 120 nM
Concentration in the skin assuming 7% penetration ([7]; topical concentration 0.0001%): 250 nM
Concentration in the skin assuming 7% penetration ([7]; topical concentration 0.001%): 2450 nM
Concentration in the skin assuming 7% penetration ([7]; topical concentration 0.01%): 24500 nM
Concentration in the skin assuming 7% penetration ([7]; topical concentration 0.1%): 245010 nM
SMILES: Nc1nc(Cl)nc2c1ncn2[C@H]1C[C@H](O)[C@@H](CO)O1 [CdA, 2-chloro-2′-deoxyadenosine]
safety factor ([1]; 0.00005%, 30% of body surface area (10.8 grams/day), 7% systemic absorption): 17,142
safety margin (times safer than the oncology dose) ([1]; topical 0.1% (1.0 mg/g), 10% BSA (4 grams per day), 7% systemic absorption): 23
safety margin (times safer than the oncology dose) ([1]; topical 0.1% (1.0 mg/g), 30% BSA (12 grams per day), 7% systemic absorption): 7.7
safety margin (times safer than the oncology dose) ([1]; topical 0.1% (1.0 mg/g), 100% BSA (40 grams per day), 7% systemic absorption): 2.3
Cytokine Secretion IL-2 pg/ml Mean of 3 Replicates ([2]; 23 hr): 51 pg/mL
Cytokine Secretion IL-2 pg/ml Mean of 3 Replicates ([2]; 46 hr): 105 pg/mL
IL-2 concentration ([2]; Jurkat cells activated by PHA, 46 hours): 105 pg/mL
concentration toxic to U-937 cells on its own [3]: 0.1 µM
time to responses and complete remissions ([4]; 3.6 mg/m^2 every day for 7 days): ≤ 1 week
Cytokine Secretion IL-6 pg/ml Mean of 3 Replicates ([5]; 23 hr): 7 pg/mL
effect on suppressing the production of IL-6 ([5]; 46 hours): little effect
Cytokine Secretion IL-6 pg/ml Mean of 3 Replicates ([5]; 46 hr): 8 pg/mL and 7 pg/mL
Km [6]: 80 µM

SMILES: Nc1nc(F)nc2c1ncn2[C@@H]1O[C@H](CO)C(O)C1O (stereo partly drawn) [F-Ara-A, 2-fluoroadenine-9β-D-Arabinofuranoside]
times safer than the oncology dose ([1]; topical 0.0002%): 8036
safety margin (times safer than the oncology dose) ([1]; topical 1.0% (10 mg/g), 10% BSA (4 grams per day), 7% systemic absorption): 16
systemic exposure per day ([1]; topical 1.0% (10 mg/g), 10% BSA (4 grams), 7% systemic absorption): 2.8 mg
safety margin (times safer than the oncology dose) ([1]; topical 1.0% (10 mg/g), 30% BSA (12 grams per day), 7% systemic absorption): 5.4
systemic exposure per day ([1]; topical 1.0% (10 mg/g), 30% BSA (12 grams), 7% systemic absorption): 8.4 mg
safety margin (times safer than the oncology dose) ([1]; topical 1.0% (10 mg/g), 100% BSA (40 grams per day), 7% systemic absorption): 1.6
systemic exposure per day ([1]; topical 1.0% (10 mg/g), 100% BSA (40 grams), 7% systemic absorption): 28 mg
time to complete remissions, on average [8]: 3 months
IC50 [9]: 500 nM
concentration achieved in the skin assuming 7% penetration ([7]; topical 0.0002% (0.002 mg/g)): approximately 0.5 μM

Concentration in the skin assuming 7% penetration ([7]; topical concentration 0.00001%): 30 nM
Concentration in the skin assuming 7% penetration ([7]; topical concentration 0.00005%): 130 nM
Concentration in the skin assuming 7% penetration ([7]; topical concentration 0.0001%): 260 nM
Concentration in the skin assuming 7% penetration ([7]; topical concentration 0.001%): 2610 nM
Concentration in the skin assuming 7% penetration ([7]; topical concentration 0.01%): 26090 nM
Concentration in the skin assuming 7% penetration ([7]; topical concentration 0.1%): 260930 nM
SMILES: OC[C@H]1O[C@@H](n2cnc3c2NC=NC[C@H]3O)C[C@@H]1O [dCF, (R)-3-(2-Deoxy-β-D-erythro-pentofuranosyl)-3,6,7,8-tetrahydroimidazo[4,5-d][1,3]diazepin-8-ol]
safety margin (times safer than the oncology dose) [1]: 1.8
drug recovered in the urine [10]: Approximately 96%
time to complete remissions, on average ([4]; 4 mg/m^2 every 14 days): 6 months
growth inhibition [11]: 0-10%
t50 ([12]; pH 1, 25° C.): 5.6 min
t50 ([12]; pH 5.0, 25° C.): about 3.5 days
t50 ([12]; pH 7.5, 25° C.): approximately 70 days
t50 ([12]; pH 12.6, 25° C.): approximately 45 days
